Measurements published in the NIST ThermoML archive (doi:10.1021/je300853z).
± gives the expanded uncertainty stated by the source.

Columns and labels:
[1] = excess molar enthalpy (molar enthalpy of mixing); xn = mol fraction of the nth substance listed; settings: 308.15 K, 101 kPa, Liquid, Calvet calorimetry
[2] = molar heat capacity at constant pressure; xn = mol fraction of the nth substance listed; settings: 101 kPa, Liquid, Small sample (50 mg) DSC

Compound: CCCCCCCC[n+]1ccc2ccccc2c1.N#C[S-] [2-octylisoquinolinium thiocyanate] + O
- excess molar enthalpy ([1]; x1 = 0.8523): -0.308 ± 0.0032 kJ/mol
- excess molar enthalpy ([1]; x1 = 0.8782): -0.264 ± 0.0028 kJ/mol
- excess molar enthalpy ([1]; x1 = 0.9058): -0.216 ± 0.0025 kJ/mol
- excess molar enthalpy ([1]; x1 = 0.9352): -0.163 ± 0.0021 kJ/mol
- excess molar enthalpy ([1]; x1 = 0.9665): -0.102 ± 0.0016 kJ/mol
- molar heat capacity at constant pressure ([2]; 278.15 K, x1 = 0.3977): 248 ± 5 J/K/mol
- molar heat capacity at constant pressure ([2]; 278.15 K, x1 = 0.5237): 295 ± 6 J/K/mol
- molar heat capacity at constant pressure ([2]; 278.15 K, x1 = 0.5945): 334 ± 7 J/K/mol
- molar heat capacity at constant pressure ([2]; 278.15 K, x1 = 0.7214): 386 ± 8 J/K/mol
- molar heat capacity at constant pressure ([2]; 278.15 K, x1 = 0.8097): 423 ± 8 J/K/mol
- molar heat capacity at constant pressure ([2]; 278.15 K, x1 = 0.8935): 467 ± 9 J/K/mol
- molar heat capacity at constant pressure ([2]; 283.15 K, x1 = 0.3977): 250 ± 5 J/K/mol
- molar heat capacity at constant pressure ([2]; 283.15 K, x1 = 0.5237): 304 ± 6 J/K/mol
- molar heat capacity at constant pressure ([2]; 283.15 K, x1 = 0.5945): 337 ± 7 J/K/mol
- molar heat capacity at constant pressure ([2]; 283.15 K, x1 = 0.7214): 388 ± 8 J/K/mol
- molar heat capacity at constant pressure ([2]; 283.15 K, x1 = 0.8097): 426 ± 9 J/K/mol
- molar heat capacity at constant pressure ([2]; 283.15 K, x1 = 0.8935): 470 ± 9 J/K/mol
- molar heat capacity at constant pressure ([2]; 288.15 K, x1 = 0.3977): 251 ± 5 J/K/mol
- molar heat capacity at constant pressure ([2]; 288.15 K, x1 = 0.5237): 306 ± 6 J/K/mol
- molar heat capacity at constant pressure ([2]; 288.15 K, x1 = 0.5945): 340 ± 7 J/K/mol
- molar heat capacity at constant pressure ([2]; 288.15 K, x1 = 0.7214): 391 ± 8 J/K/mol
- molar heat capacity at constant pressure ([2]; 288.15 K, x1 = 0.8097): 429 ± 9 J/K/mol
- molar heat capacity at constant pressure ([2]; 288.15 K, x1 = 0.8935): 474 ± 9 J/K/mol
- molar heat capacity at constant pressure ([2]; 293.15 K, x1 = 0.3977): 253 ± 5 J/K/mol
- molar heat capacity at constant pressure ([2]; 293.15 K, x1 = 0.5237): 309 ± 6 J/K/mol
- molar heat capacity at constant pressure ([2]; 293.15 K, x1 = 0.5945): 342 ± 7 J/K/mol
- molar heat capacity at constant pressure ([2]; 293.15 K, x1 = 0.7214): 393 ± 8 J/K/mol
- molar heat capacity at constant pressure ([2]; 293.15 K, x1 = 0.8097): 432 ± 9 J/K/mol
- molar heat capacity at constant pressure ([2]; 293.15 K, x1 = 0.8935): 476 ± 10 J/K/mol
- molar heat capacity at constant pressure ([2]; 298.15 K, x1 = 0.3977): 255 ± 5 J/K/mol
- molar heat capacity at constant pressure ([2]; 298.15 K, x1 = 0.5237): 311 ± 6 J/K/mol
- molar heat capacity at constant pressure ([2]; 298.15 K, x1 = 0.5945): 344 ± 7 J/K/mol
- molar heat capacity at constant pressure ([2]; 298.15 K, x1 = 0.7214): 396 ± 8 J/K/mol
- molar heat capacity at constant pressure ([2]; 298.15 K, x1 = 0.8097): 434 ± 9 J/K/mol
- molar heat capacity at constant pressure ([2]; 298.15 K, x1 = 0.8935): 479 ± 10 J/K/mol
- molar heat capacity at constant pressure ([2]; 303.15 K, x1 = 0.3977): 257 ± 5 J/K/mol
- molar heat capacity at constant pressure ([2]; 303.15 K, x1 = 0.5237): 313 ± 6 J/K/mol
- molar heat capacity at constant pressure ([2]; 303.15 K, x1 = 0.5945): 347 ± 7 J/K/mol
- molar heat capacity at constant pressure ([2]; 303.15 K, x1 = 0.7214): 398 ± 8 J/K/mol
- molar heat capacity at constant pressure ([2]; 303.15 K, x1 = 0.8097): 437 ± 9 J/K/mol
- molar heat capacity at constant pressure ([2]; 303.15 K, x1 = 0.8935): 482 ± 10 J/K/mol
- molar heat capacity at constant pressure ([2]; 308.15 K, x1 = 0.3977): 258 ± 5 J/K/mol
- molar heat capacity at constant pressure ([2]; 308.15 K, x1 = 0.5237): 315 ± 6 J/K/mol
- molar heat capacity at constant pressure ([2]; 308.15 K, x1 = 0.5945): 349 ± 7 J/K/mol
- molar heat capacity at constant pressure ([2]; 308.15 K, x1 = 0.7214): 400 ± 8 J/K/mol
- molar heat capacity at constant pressure ([2]; 308.15 K, x1 = 0.8097): 439 ± 9 J/K/mol
- molar heat capacity at constant pressure ([2]; 308.15 K, x1 = 0.8935): 484 ± 10 J/K/mol
- molar heat capacity at constant pressure ([2]; 313.15 K, x1 = 0.3977): 260 ± 5 J/K/mol
- molar heat capacity at constant pressure ([2]; 313.15 K, x1 = 0.5237): 316 ± 6 J/K/mol
- molar heat capacity at constant pressure ([2]; 313.15 K, x1 = 0.5945): 351 ± 7 J/K/mol
- molar heat capacity at constant pressure ([2]; 313.15 K, x1 = 0.7214): 402 ± 8 J/K/mol
- molar heat capacity at constant pressure ([2]; 313.15 K, x1 = 0.8097): 441 ± 9 J/K/mol
- molar heat capacity at constant pressure ([2]; 313.15 K, x1 = 0.8935): 487 ± 10 J/K/mol
- molar heat capacity at constant pressure ([2]; 318.15 K, x1 = 0.3977): 261 ± 5 J/K/mol
- molar heat capacity at constant pressure ([2]; 318.15 K, x1 = 0.5237): 318 ± 6 J/K/mol
- molar heat capacity at constant pressure ([2]; 318.15 K, x1 = 0.5945): 353 ± 7 J/K/mol
- molar heat capacity at constant pressure ([2]; 318.15 K, x1 = 0.7214): 404 ± 8 J/K/mol
- molar heat capacity at constant pressure ([2]; 318.15 K, x1 = 0.8097): 441 ± 9 J/K/mol
- molar heat capacity at constant pressure ([2]; 318.15 K, x1 = 0.8935): 490 ± 10 J/K/mol
- molar heat capacity at constant pressure ([2]; 323.15 K, x1 = 0.3977): 261 ± 5 J/K/mol
- molar heat capacity at constant pressure ([2]; 323.15 K, x1 = 0.5237): 319 ± 6 J/K/mol
- molar heat capacity at constant pressure ([2]; 323.15 K, x1 = 0.5945): 355 ± 7 J/K/mol
- molar heat capacity at constant pressure ([2]; 323.15 K, x1 = 0.7214): 405 ± 8 J/K/mol
- molar heat capacity at constant pressure ([2]; 323.15 K, x1 = 0.8097): 442 ± 9 J/K/mol
- molar heat capacity at constant pressure ([2]; 323.15 K, x1 = 0.8935): 492 ± 10 J/K/mol
- molar heat capacity at constant pressure ([2]; 328.15 K, x1 = 0.3977): 262 ± 5 J/K/mol
- molar heat capacity at constant pressure ([2]; 328.15 K, x1 = 0.5237): 320 ± 6 J/K/mol
- molar heat capacity at constant pressure ([2]; 328.15 K, x1 = 0.5945): 357 ± 7 J/K/mol
- molar heat capacity at constant pressure ([2]; 328.15 K, x1 = 0.7214): 406 ± 8 J/K/mol
- molar heat capacity at constant pressure ([2]; 328.15 K, x1 = 0.8097): 443 ± 9 J/K/mol
- molar heat capacity at constant pressure ([2]; 328.15 K, x1 = 0.8935): 495 ± 10 J/K/mol
- molar heat capacity at constant pressure ([2]; 333.15 K, x1 = 0.3977): 263 ± 5 J/K/mol
- molar heat capacity at constant pressure ([2]; 333.15 K, x1 = 0.5237): 321 ± 6 J/K/mol
- molar heat capacity at constant pressure ([2]; 333.15 K, x1 = 0.5945): 358 ± 7 J/K/mol
- molar heat capacity at constant pressure ([2]; 333.15 K, x1 = 0.7214): 408 ± 8 J/K/mol
- molar heat capacity at constant pressure ([2]; 333.15 K, x1 = 0.8097): 443 ± 9 J/K/mol
- molar heat capacity at constant pressure ([2]; 333.15 K, x1 = 0.8935): 497 ± 10 J/K/mol
- molar heat capacity at constant pressure ([2]; 338.15 K, x1 = 0.3977): 263 ± 5 J/K/mol
- molar heat capacity at constant pressure ([2]; 338.15 K, x1 = 0.5237): 322 ± 6 J/K/mol
- molar heat capacity at constant pressure ([2]; 338.15 K, x1 = 0.5945): 360 ± 7 J/K/mol
- molar heat capacity at constant pressure ([2]; 338.15 K, x1 = 0.7214): 408 ± 8 J/K/mol
- molar heat capacity at constant pressure ([2]; 338.15 K, x1 = 0.8097): 442 ± 9 J/K/mol
- molar heat capacity at constant pressure ([2]; 338.15 K, x1 = 0.8935): 500 ± 10 J/K/mol
